Assay results published in patent US8710233B2 (Gruenenthal GmbH, priority 2005, dated 2014).
Each block holds one compound with its values, some of them ahead of it.

Legend:
VR1/TRPV1 receptor = VR1/TRPV1 receptor (Homo sapiens, UniProt Q8NER1); assay: IC50 (human) after pH stimulus; assay type: cell-based; conditions: for inhibition at 1 µM / inhibition in percent, IC50 (human) after pH stimulus: ne = no effect, @ 1 μM; for IC50: table 4
vanilloid receptor (VR1) = target: T1, vanilloid receptor (VR1) (Homo sapiens, UniProt Q8NER1); assay: FLIPR Ca2+ influx assay on CHO K1 cells transfected with the VR1 gene (pharmacological method II); assay type: cell-based; conditions: table 4; capsaicin; read-out: Ki (human) Cap.
T1 construct: expressed in transfected cells; host or cells: CHO K1 cells (ECACC), stably transfected
From the text: In this FLIPR assay, the influx of Ca^2+ is quantified with the assistance of a Ca^2+-sensitive dye (type Fluo-4, Molecular Probes Europe BV, Leiden, Netherlands) in a Fluorescent Imaging Plate Reader (FLIPR, Molecular Devices, Sunnyvale, USA) as described below.
II. Functional Investigations on the Vanilloid Receptor (VR1)
The agonistic or antagonistic action of the substances to be investigated on the vanilloid receptor (VR1) may also be determined with the following assay. According to this assay, the influx of Ca^2+ through the channel is quantified with the assistance of a Ca^2+-sensitive dye (type Fluo-4, Molecular Probes Europe BV, Leiden, Netherlands) in a Fluorescent Imaging Plate Reader (FLIPR, Molecular Devices, Sunnyvale, USA).
Chinese hamster ovary cells (CHO K1 cells, European Collection of Cell Cultures (ECACC), Great Britain) are stably transfected with the VR1 gene. For functional investigations, these cells are plated out onto poly-D-lysine-coated, black 96 well plates with a clear bottom (BD Biosciences, Heidelberg, Germany) at a density of 25,000 cells/well. The cells are incubated overnight at 37° C. and 5% CO2 in a culture medium (Ham's Nutrient Mixture F12, 10 vol. % FCS (foetal calf serum), 18 μg/mL L-proline). On the following day, the cells are incubated with Fluo-4 (Fluo-4 2 μM, Pluronic F127 0.01 vol. %, Molecular Probes in HBSS (Hank's buffered saline solution), Gibco Invitrogen GmbH, Karlsruhe, Germany) for 30 minutes at 37° C. The plates are then washed 3 times with HBSS buffer and, after a further 15 minutes' incubation at room temperature, used for […] measurement in the FLIPR. […] Quantification proceeds by measuring the highest fluorescence intensity (FC, fluorescence counts) over time.
The FLIPR protocol comprises 2 additions of substance. The substances to be tested (10 μM) are firstly pipetted onto the cells and Ca^2+ influx is compared with the control (capsaicin 10 μM) (% activation relative to the Ca^2+ signal after addition of 10 μM of capsaicin). After 5 minutes' incubation, 100 nM of capsaicin are added and the influx of Ca^2+ is again determined.
The percentage inhibition in comparison with the maximum achievable inhibition with 10 μM capsaicin is calculated.

[1] = read-out: inhibition in percent, IC50 (human) after pH stimulus

VR1/TRPV1 receptor, sequence (Q8NER1 whole entry): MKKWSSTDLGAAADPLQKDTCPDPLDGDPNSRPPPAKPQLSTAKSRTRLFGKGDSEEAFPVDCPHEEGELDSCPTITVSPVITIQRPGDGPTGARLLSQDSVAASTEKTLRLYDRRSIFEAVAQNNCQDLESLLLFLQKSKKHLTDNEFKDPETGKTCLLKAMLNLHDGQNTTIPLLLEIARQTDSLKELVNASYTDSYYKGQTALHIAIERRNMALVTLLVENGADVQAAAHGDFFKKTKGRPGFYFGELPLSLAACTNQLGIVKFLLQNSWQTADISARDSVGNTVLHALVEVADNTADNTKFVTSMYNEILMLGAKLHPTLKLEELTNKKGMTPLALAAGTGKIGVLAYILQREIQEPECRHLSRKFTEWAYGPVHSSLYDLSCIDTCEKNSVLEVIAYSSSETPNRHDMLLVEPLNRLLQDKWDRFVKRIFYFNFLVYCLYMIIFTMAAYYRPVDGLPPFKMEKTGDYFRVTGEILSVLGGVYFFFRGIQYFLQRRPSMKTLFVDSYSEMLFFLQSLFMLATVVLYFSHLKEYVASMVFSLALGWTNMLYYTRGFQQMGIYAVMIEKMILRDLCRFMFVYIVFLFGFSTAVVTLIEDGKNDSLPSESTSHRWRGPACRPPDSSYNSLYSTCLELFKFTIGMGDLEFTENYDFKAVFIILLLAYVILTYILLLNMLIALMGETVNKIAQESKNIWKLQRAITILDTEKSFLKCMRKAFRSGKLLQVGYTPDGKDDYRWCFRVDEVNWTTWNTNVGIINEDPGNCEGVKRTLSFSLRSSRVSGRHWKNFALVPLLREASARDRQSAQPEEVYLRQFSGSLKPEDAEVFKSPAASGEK
T1 sequence (Q8NER1 whole entry): as above

Structure (SMILES): CC(C)OC1CCN(c2nc(C(F)(F)F)ccc2CNC(=O)C(C)c2ccc(NS(C)(=O)=O)c(F)c2)CC1 (centres unmarked) [Compound 162]
inhibition at 0.1 µM (VR1/TRPV1 receptor; [1]): 31%

Structure (SMILES): Cc1cc(C(C)C(=O)NCc2ccc(C(F)(F)F)nc2N2CCC(C)CC2)ccc1NS(C)(=O)=O (centres unmarked) [Compound 196]
inhibition at 0.01 µM (VR1/TRPV1 receptor; [1]): 6% | inhibition at 0.1 µM (VR1/TRPV1 receptor; [1]): 48%

Structure (SMILES): CCCCCCOc1nc(C(C)(C)C)ccc1CNC(=O)C(C)c1ccc(NS(C)(=O)=O)c(F)c1 (centres unmarked) [Compound 236]
inhibition at 0.1 µM (VR1/TRPV1 receptor; [1]): 2%

Structure (SMILES): CCCCOc1nc(C(F)(F)F)ccc1CNC(=O)C(C)c1ccc(NS(C)(=O)=O)c(C)c1 (centres unmarked) [Compound 256]
inhibition at 0.01 µM (VR1/TRPV1 receptor; [1]): 15% | inhibition at 0.1 µM (VR1/TRPV1 receptor; [1]): 43%

Structure (SMILES): CCCCCCOc1nc(C(F)(F)F)ccc1CNC(=O)C(C)c1ccc(NS(C)(=O)=O)c(C)c1 (centres unmarked) [Compound 257]
inhibition at 0.01 µM (VR1/TRPV1 receptor; [1]): 11% | inhibition at 0.1 µM (VR1/TRPV1 receptor; [1]): 63%

Structure (SMILES): CC(C(=O)NCc1ccc(C(F)(F)F)nc1N1CCN(C2CCCCC2)CC1)c1ccc(NS(C)(=O)=O)c(F)c1 (centres unmarked) [Compound 260]
inhibition at 0.1 µM (VR1/TRPV1 receptor; [1]): 8.5%

Structure (SMILES): CCCN(CCC)c1nc(C(F)(F)F)ccc1CNC(=O)C(C)c1ccc(NS(C)(=O)=O)c(C)c1 (centres unmarked) [Compound 331]
inhibition at 0.1 µM (VR1/TRPV1 receptor; [1]): 18% | inhibition at 1 µM (VR1/TRPV1 receptor; [1]): 26% | inhibition at 5 µM (VR1/TRPV1 receptor; [1]): 22%

Structure (SMILES): CCCCC(CCCC)Oc1nc(C(F)(F)F)ccc1CNC(=O)C(C)c1ccc(NS(C)(=O)=O)c(F)c1 (centres unmarked) [Compound 352]
inhibition at 1 µM (VR1/TRPV1 receptor; [1]): 27%

Structure (SMILES): CC(C)COc1nc(C(C)(C)C)ccc1CNC(=O)C(C)c1ccc(NS(C)(=O)=O)c(F)c1 (centres unmarked) [Compound 353]
inhibition at 0.05 µM (VR1/TRPV1 receptor; @ 0.05 μM, read-out: inhibition in percent, IC50 (human) after pH stimulus): 18%

Structure (SMILES): CC(C)COc1nc(C(F)(F)F)ccc1CNC(=O)[C@@H](C)c1ccc(NS(C)(=O)=O)c(F)c1 [Example 96, (S)-2-(3-fluoro-4-methylsulfonamido-phenyl)-N-(2-isobutoxy-6-trifluoromethyl-pyridin-3-ylmethyl)-propionamide]
IC50 (VR1/TRPV1 receptor): 30 nM | Ki (vanilloid receptor (VR1)): 0.5 nM

Structure (SMILES): CC(C)COc1nc(C(F)(F)F)ccc1CNC(=O)[C@H](C)c1ccc(NS(C)(=O)=O)c(F)c1 [Example 97, (R)-2-(3-fluoro-4-methylsulfonamido-phenyl)-N-(2-isobutoxy-6-trifluoromethyl-pyridin-3-ylmethyl)-propionamide]
IC50 (VR1/TRPV1 receptor): 2150 nM | Ki (vanilloid receptor (VR1)): 44.5 nM

Structure (SMILES): CC(C)COc1cc(C(F)(F)F)ccc1CNC(=O)C(C)c1ccc(NS(C)(=O)=O)c(F)c1 (centres unmarked) [Example 98, 2-(3-fluoro-4-methylsulfonamido-phenyl)-N-(2-isobutoxy-4-trifluoromethyl-benzyl)-propionamide]
IC50 (VR1/TRPV1 receptor): 41 nM | Ki (vanilloid receptor (VR1)): 1.5 nM

Structure (SMILES): CC(C(=O)NCc1c(CO)cc(C(C)(C)C)nc1OC1CCCC1)c1ccc(NS(C)(=O)=O)c(F)c1 (centres unmarked) [Example 261, N-(6-tert-butyl-2-cyclopentyloxy-4-hydroxymethyl-pyridin-3-ylmethyl)-2-(3-fluoro-4-methylsulfonamido-phenyl)-propionamide]
inhibition in percent, IC50 (human) after pH stimulus (VR1/TRPV1 receptor): ne @ 1 μM

Structure (SMILES): CCC(C(=O)NCc1ccc(C(F)(F)F)nc1N1CCC(C)CC1)c1ccc(NS(C)(=O)=O)c(F)c1 (centres unmarked) [Example 347, 2-(3-fluoro-4-methylsulfonamido-phenyl)-N-(4-methyl-6′-trifluoromethyl-3,4,5,6-tetrahydro-2H-[1,2′]bipyridinyl-3′-ylmethyl)-butyramide]
Ki (vanilloid receptor (VR1)): 1.6 nM

Structure (SMILES): CCOC(=O)c1cc(CNC(=O)C(C)c2ccc(NS(C)(=O)=O)c(F)c2)c(N2CCC(C)CC2)cc1C(F)(F)F (centres unmarked) [Example 351, 5-{[2-(3-fluoro-4-methylsulfonamido-phenyl)-propionylamino]-methyl}-4-(4-methyl-piperidin-1-yl)-2-trifluoromethyl-benzoic acid ethyl ester]
Ki (vanilloid receptor (VR1)): 44 nM

Structure (SMILES): CC1CC(C)CC(Oc2nc(C(F)(F)F)ccc2CNC(=O)C(C)c2ccc(NS(C)(=O)=O)c(F)c2)C1 (centres unmarked) [Example 377, N-((2-(3,5-dimethylcyclohexyloxy)-6-(trifluoromethyl)pyridin-3-yl)methyl)-2-(3-fluoro-4-(methylsulfonamido)phenyl)propanamide]
Ki (vanilloid receptor (VR1)): 3 nM

Results, then the compound that gave them:

inhibition at 1 µM (VR1/TRPV1 receptor; [1]): 26%
Structure (SMILES): CC(C(=O)NCc1ccc(C(F)(F)F)nc1Nc1ccc(F)cc1)c1ccc(NS(C)(=O)=O)c(F)c1 (centres unmarked) [Compound 112]

inhibition at 1 µM (VR1/TRPV1 receptor; [1]): 15%
Structure (SMILES): CC(C(=O)NCc1ccc(C(F)(F)F)nc1N1CCN(C)CC1)c1ccc(NS(C)(=O)=O)c(F)c1 (centres unmarked) [Compound 134]

inhibition at 0.01 µM (VR1/TRPV1 receptor; [1]): 3%
Structure (SMILES): CC(C(=O)NCc1ccc(C(F)(F)F)cc1OC1CCCCC1)c1ccc(NS(C)(=O)=O)c(F)c1 (centres unmarked) [Compound 238]

inhibition at 1 µM (VR1/TRPV1 receptor; [1]): 63%
Structure (SMILES): CC(C(=O)NCc1ccc(C(F)(F)F)cc1N1CCN(c2ccc(C(F)(F)F)cc2)CC1)c1ccc(NS(C)(=O)=O)c(F)c1 (centres unmarked) [Compound 248]

inhibition at 0.1 µM (VR1/TRPV1 receptor; [1]): 0%
Structure (SMILES): CC(C(=O)NCc1ccc(C(F)(F)F)nc1N1CCC(CN(C)C)(c2ccccc2)CC1)c1ccc(NS(C)(=O)=O)c(F)c1 (centres unmarked) [Compound 259]

inhibition at 0.01 µM (VR1/TRPV1 receptor; [1]): 4% | inhibition at 0.1 µM (VR1/TRPV1 receptor; [1]): 52%
Structure (SMILES): CC(C(=O)NCc1ccc(C(F)(F)F)nc1CCC(C)(C)C)c1ccc(NS(C)(=O)=O)c(F)c1 (centres unmarked) [Compound 263]

inhibition at 0.01 µM (VR1/TRPV1 receptor; [1]): 12% | inhibition at 0.1 µM (VR1/TRPV1 receptor; [1]): 55%
Structure (SMILES): CC1CCCN(c2nc(C(F)(F)F)ccc2CNC(=O)C(C)c2ccc(NS(C)(=O)=O)c(F)c2)C1 (centres unmarked) [Compound 282]

inhibition at 0.01 µM (VR1/TRPV1 receptor; [1]): 11% | inhibition at 0.1 µM (VR1/TRPV1 receptor; [1]): 43%
Structure (SMILES): CC(C(=O)NCc1ccc(C(F)(F)F)nc1N1CCCCC1C)c1ccc(NS(C)(=O)=O)c(F)c1 (centres unmarked) [Compound 283]

inhibition at 1 µM (VR1/TRPV1 receptor; [1]): 4%
Structure (SMILES): CC(C(=O)NCc1ccc(C(F)(F)F)cc1N1CCN(C2CCCCC2)CC1)c1ccc(NS(C)(=O)=O)c(F)c1 (centres unmarked) [Compound 319]

inhibition at 1 µM (VR1/TRPV1 receptor; [1]): 8% | inhibition at 5 µM (VR1/TRPV1 receptor; [1]): 32%
Structure (SMILES): COc1ccc(-c2nc(C(F)(F)F)ccc2CNC(=O)C(C)c2ccc(NS(C)(=O)=O)c(F)c2)cc1OC (centres unmarked) [Compound 326]

inhibition at 5 µM (VR1/TRPV1 receptor; [1]): 40% | Ki (vanilloid receptor (VR1)): 59.4 nM
Structure (SMILES): CC(C(=O)NCc1ccc(C(F)(F)F)cc1-c1cccnc1)c1ccc(NS(C)(=O)=O)c(F)c1 (centres unmarked) [Example 46, 2-(3-fluoro-4-(methylsulfonamido)phenyl)-N-(2-(pyridin-3-yl)-4-(trifluoromethyl)benzyl)propanamide]

IC50 (VR1/TRPV1 receptor): 146 nM | Ki (vanilloid receptor (VR1)): 1 nM
Structure (SMILES): CCCCCc1nc(C(F)(F)F)ccc1CNC(=O)[C@@H](C)c1ccc(NS(C)(=O)=O)c(F)c1 [Example 144, (S)-2-(3-fluoro-4-methylsulfonamido-phenyl)-N-(2-pentyl-6-trifluoromethyl-pyridin-3-ylmethyl)-propionamide]

inhibition at 10 µM (VR1/TRPV1 receptor; @ 10 μM, read-out: inhibition in percent, IC50 (human) after pH stimulus): 49% | Ki (vanilloid receptor (VR1)): 78 nM
Structure (SMILES): CCCCCc1nc(C(F)(F)F)ccc1CNC(=O)[C@H](C)c1ccc(NS(C)(=O)=O)c(F)c1 [Example 145, (R)-2-(3-fluoro-4-methylsulfonamido-phenyl)-N-(2-pentyl-6-trifluoromethyl-pyridin-3-ylmethyl)-propionamide]

inhibition in percent, IC50 (human) after pH stimulus (VR1/TRPV1 receptor): ne @ 1 μM | Ki (vanilloid receptor (VR1)): 3.4 nM
Structure (SMILES): CC(C(=O)NCc1ccc(C(F)(F)F)nc1-c1ccc2c(c1)OCO2)c1ccc(NS(C)(=O)=O)c(F)c1 (centres unmarked) [Example 266, N-(2-benzo[1,3]dioxol-5-yl-6-trifluoromethyl-pyridin-3-ylmethyl)-2-(3-fluoro-4-methylsulfonamido-phenyl)-propionamide]

inhibition at 0.1 µM (VR1/TRPV1 receptor; [1]): 25% | inhibition at 1 µM (VR1/TRPV1 receptor; [1]): 54%
Structure (SMILES): CC(C(=O)NCc1ccc(C(F)(F)F)cc1-c1cccc(Cl)c1)c1ccc(NS(C)(=O)=O)c(F)c1 (centres unmarked) [Example 322, N-(3′-chloro-5-trifluoromethyl-biphenyl-2-ylmethyl)-2-(3-fluoro-4 methylsulfonamido-phenyl)-propionamide]

IC50 (VR1/TRPV1 receptor): 33 nM
Structure (SMILES): CC(C(=O)NCc1ccc(C(F)(F)F)cc1-c1ccc(F)c(Cl)c1)c1ccc(NS(C)(=O)=O)c(F)c1 (centres unmarked) [Example 324, N-(3′-chloro-4′-fluoro-5-trifluoromethyl-biphenyl-2-ylmethyl)-2-(3-fluoro-4-methylsulfonamido-phenyl)-propionamide]

IC50 (VR1/TRPV1 receptor): 30 nM
Structure (SMILES): CCCCCOc1nc(C(F)(F)F)ccc1CNC(=O)C(C)c1ccc(NS(C)(=O)=O)c(F)c1 (centres unmarked) [Example 375, 2-(3-fluoro-4-(methylsulfonamido)phenyl)-N-((2-(pentyloxy)-6-(trifluoromethyl)pyridin-3-yl)methyl)propanamide]
